Experimental data: patent US10336792B2, “Antimicrobial peptide dendrimers” (priority 2014, dated 2019)
Converted amounts (≈) assume the structure as drawn. Positions of bridges follow the written chain, without caps; N, C: chain ends. Non-standard residues stand in square brackets, D forms with d. Residues, ends and D or L forms follow the SMILES beside them. Groups on a side chain read outwards from the residue. Chains are numbered I, II in the order given. *: point of attachment. Decanoyl = CCCCCCCCCC(=O)*; Orn = NCCC[C@H](N)C(=O)O; Dab = NCC[C@H](N)C(=O)O

What was measured:
[1] = test system: Pseudomonas aeruginosa (strain PA01); assay: microbe, parasite or virus in culture; type: cell-based; details: LB medium, serial 2/3 dilution, 37 °C, 18-24 h
Outline: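 Broth microdilution MIC against P. aeruginosa PAO1 in LB: peptides serially diluted by ⅔, bacteria added at OD600 0.001 and incubated 18–24 h at 37 °C. MTT added; MIC is the lowest concentration preventing visible growth.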

[2] = test system: Escherichia coli (strain DH5α); type: cell-based; details: LB medium
Outline: (§1)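 Broth microdilution MIC in LB; overnight cultures diluted to OD600 0.001 and mixed 1:1 with ⅔-serially diluted samples (stock 1 mg mL^−1 in H2O), 37° C for 18-24 h. MTT (0.1%) added; MIC read by eye as lowest concentration inhibiting visible growth (yellow).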

[3] = test system: human red blood cells (hRBC); assay: Haemolysis assay, minimal haemolytic concentration (MHC); type: cell-based; details: hRBC in PBS pH 7.4, 4 h, room temperature
Description: To determine the minimal haemolytic concentration (MHC) stock solutions of 8 mg/mL of the peptide dendrimers in H2O were prepared and 50 μL were diluted serially by ½ in 50 μL PBS (pH 7.4) in 96-well plate (Cornstar or Nunc, polystyrene, untreated). Human red blood cells (hRBC) were obtained by centrifuging 1.5 mL of whole blood from friendly donors at 3000 rpm for 15 minutes. Plasma was discarded and the pellet was re-suspended in a 15 mL falcon tube up to 5 mL of PBS. The washing was repeated three times and the remaining pellet was re-suspended in 10 mL of PBS at a final hRBC concentration of 5%. The hRBC suspension (50 μL) was added to each well and the plate was incubated at room temperature for 4 hours. Minimal haemolytic concentration (MHC) end points were determined by visual inspection of the wells after the incubation period. Controls on each plate included a blank medium control (50 μl PBS+50 μl of hRBC suspension) and a haemolytic activity control (mQ-deionized water 50 μL+50 μL hRBC suspension).
MIC (minimal inhibitory concentration) and MHC (minimal haemolytic concentration, determined on human red blood cells (hRBC)) values are given in μg/mL. When no detectable haemolytic activity was observed, the last measured concentration was used for calculation of the therapeutic index. TI (therapeutic index)=MHC (μg/ml)/geometric mean of MIC (μg/ml). Larger values indicate greater antimicrobial specificity.

[4] = test system: Bacillus subtilis (strain BR151); type: cell-based; details: LB medium
Outline: as §1

P. aeruginosa PA01 (WT) = type: cell-based, Pseudomonas aeruginosa; details: WT
Description: (§2) Antimicrobial activity was assayed against P. aeruginosa PA01 (WT), P. aeruginosa PT1482 (A-), PT1485 (A-B-), PT1149 (A-B-C-algC), PT331 (Z61) (LPS mutants), P. aeruginosa PEJ2.6, PEJ9.1, ZEM1.A, ZEM9.A (clinical isolates from Université de Genève/Centre Médical Universitaire), Burkholderia cenocepacia (B. ceno), Staphylococcus aureus (S. aureus, MRSA strain) and Acinetobacter baumannii (A. baum) (clinical isolates from Université de Genève/Centre Médical Universitaire). To determine the minimal inhibitory concentration (MIC), microdilution broth method was used. A colony of bacteria was grown in MH-medium overnight at 37° C. The samples were prepared as stock solutions of 8 mg mL^−1 in H2O, diluted to the beginning concentration of 32, 64, 128 or 256 μg/mL in 300 μL MH-medium, added to the first well of 96-well microtiterplate (TPP, untreated) and diluted serially by ½. The concentration of the bacteria was quantified by measuring absorbance at 600 nm and diluted to OD600=0.022 in MH-medium. The sample solutions (150 μL) were mixed with 4 μL diluted bacterial suspension with a final inoculation of about of 5×10^5 CFU. The plates were incubated at 37° C. until satisfactory growth (˜18 h). For each test, two columns of the plate were kept for sterility control (SC, broth only) and growth control (GC, broth with bacterial inoculums, no antibiotics). The minimal inhibitory concentration (MIC) was defined as the lowest concentration of the antimicrobial substance (peptide dendrimer) that inhibited visible growth of the tested bacteria with the unaided eye. For microbiological study Polymyxin was used as references.

PAO1 = type: cell-based, Pseudomonas aeruginosa; details: PAO1
Description: as §2

[5] = test system: P. aeruginosa PEJ2.6, PEJ9.1, ZEM1.A, ZEM9.A (clinical isolates); type: cell-based, Pseudomonas aeruginosa; details: PEJ2.6, PEJ9.1, ZEM1.A, ZEM9.A (clinical isolates)
Description: as §2
(§3) Ten of the most promising compounds (FIG. 5) were tested for their efficiency against four clinical isolates of P. aeruginosa (ZEM9.A, ZEM1.A, PEJ2.6, PEJ9.1), one S. aureus (COL, MRSA reference strain) and one A. baumannii strain. For the experiments in Genève the peptide dendrimers and reference compounds (polymyxin) were dissolved in PBS and the assay was carried out in Müller-Hinton (MH) broth with a two-fold dilution.

Acinetobacter baumannii = type: cell-based
Description: as §2, §3

[6] = test system: Staphylococcus aureus (COL, MRSA reference strain); type: cell-based; details: COL, reference strain
Description: as §2, §3

| Compound | MIC P. aeruginosa PAO1 [1] | MIC E. coli DH5α [2] | MHC (minimal haemolytic concentration) [3] | MIC B. subtilis BR151 [4] | MIC (MH) (P. aeruginosa PA01 (WT)) | MIC PAO1 (P. aeruginosa PA01 (WT)) | MIC (MH + 30% human serum) (PAO1) | MIC P. aeruginosa MDR clinical isolate PEJ2.6 [5] | MIC P. aeruginosa MDR clinical isolate PEJ9.1 [5] | MIC P. aeruginosa MDR clinical isolate ZEM1A [5] | MIC P. aeruginosa MDR clinical isolate ZEM9A [5] | MIC A. baumannii ATCC19606 (Acinetobacter baumannii) | MIC S. aureus COL [6] |
| --- | --- | --- | --- | --- | --- | --- | --- | --- | --- | --- | --- | --- | --- |
| (LA)8(KLK)4(KLA)2(KKL) [MSt-120] | 14 µg/mL | considerably less active | 584 µg/mL | – | – | – | – | – | – | – | – | – | – |
| (KLL)4(KKLL)2(KKLL) [MIS-02] | 3 µg/mL | – | 15 µg/mL | 1 µg/mL | – | – | – | – | – | – | – | – | – |
| (DabL)8(KDabW)4(KDabW)2(KDabL) [MSt-204] | 3 µg/mL | 2 µg/mL | 146 µg/mL | 2 µg/mL | – | – | – | – | – | – | – | – | – |
| CC(C)C[C@H](NC(=O)[C@H](CCCCN)NC(=O)[C@H](CCCCNC(=O)[C@H](CC(C)C)NC(=O)[C@H](CCCCN)NC(=O)[C@H](CCCCNC(=O)[C@H](CC(C)C)NC(=O)[C@H](CCCCN)NC(=O)[C@@H](N)CCCCN)NC(=O)[C@H](CC(C)C)NC(=O)[C@H](CCCCN)NC(=O)[C@@H](N)CCCCN)NC(=O)[C@H](CC(C)C)NC(=O)[C@H](CCCCN)NC(=O)[C@H](CCCCNC(=O)[C@H](CC(C)C)NC(=O)[C@H](CCCCN)NC(=O)[C@@H](N)CCCCN)NC(=O)[C@H](CC(C)C)NC(=O)[C@H](CCCCN)NC(=O)[C@@H](N)CCCCN)C(N)=O [MSt-119, (KKL)4(KKL)2(KKL)] (I: H-KKLK([Leu-Lys-Lys])KLKKL-NH2 / II: H-KKLK([Leu-Lys-Lys])KL; amide I:7-II:C) | 3 µg/mL (≈ 1.15 µM) | – | 677 µg/mL | 20 µg/mL (≈ 7.68 µM) | – | – | – | – | – | – | – | – | – |
| CCCCCCCCCC(=O)NCCCC[C@H](NC(=O)[C@H](CC(C)C)NC(=O)[C@H](CCCCN)NC(=O)[C@H](CCCCNC(=O)[C@H](CC(C)C)NC(=O)[C@H](CCN)NC(=O)[C@H](CCCCNC(=O)[C@H](Cc1ccccc1)NC(=O)[C@@H](N)CCCNC(=N)N)NC(=O)[C@H](Cc1ccccc1)NC(=O)[C@@H](N)CCCNC(=N)N)NC(=O)[C@H](CC(C)C)NC(=O)[C@H](CCN)NC(=O)[C@H](CCCCNC(=O)[C@H](Cc1ccccc1)NC(=O)[C@@H](N)CCCNC(=N)N)NC(=O)[C@H](Cc1ccccc1)NC(=O)[C@@H](N)CCCNC(=N)N)C(N)=O [TNS-124, (RF)4(KDabL)2(KKLK-CO(CH2)8CH3)] (I: H-RFK([Phe-Arg])[Dab]LKKLK(Decanoyl)-NH2 / II: H-RFK([Phe-Arg])[Dab]L; amide I:6-II:C; N-terminus assumed) | – | – | – | – | 4 to 8 µg/mL | 8 µg/mL (≈ 3.12 µM) | 16 to 32 µg/mL | 8 µg/mL (≈ 3.12 µM) | 32 µg/mL (≈ 12.5 µM) | 4 to 8 µg/mL | 16 to 32 µg/mL | 8 to 16 µg/mL | 8 µg/mL (≈ 3.12 µM) |
| CCCCCCCCCC(=O)NCCCC[C@H](NC(=O)[C@H](CC(C)C)NC(=O)[C@H](CCCCN)NC(=O)[C@H](CCCCNC(=O)[C@H](CC(C)C)NC(=O)[C@H](CCCCN)NC(=O)[C@H](CCCCNC(=O)[C@H](CC(C)C)NC(=O)[C@@H](N)CCCCN)NC(=O)[C@H](CC(C)C)NC(=O)[C@@H](N)CCCCN)NC(=O)[C@H](CC(C)C)NC(=O)[C@H](CCCCN)NC(=O)[C@H](CCCCNC(=O)[C@H](CC(C)C)NC(=O)[C@@H](N)CCCCN)NC(=O)[C@H](CC(C)C)NC(=O)[C@@H](N)CCCCN)C(N)=O [Compound G2KLC10, (KL)4(KKL)2(KKL-CO(CH2)8CH3)] (I: H-KLK([Leu-Lys])KLKKLK(Decanoyl)-NH2 / II: H-KLK([Leu-Lys])KL; amide I:6-II:C; N-terminus assumed) | – | – | – | – | 4 µg/mL (≈ 1.69 µM) | 8 µg/mL (≈ 3.37 µM) | 8 to 16 µg/mL | 8 µg/mL (≈ 3.37 µM) | 64 µg/mL (≈ 27 µM) | 4 µg/mL (≈ 1.69 µM) | – | 16 µg/mL (≈ 6.74 µM) | 64 µg/mL (≈ 27 µM) |
| CCCCCCCCCC(=O)NCCCC[C@H](NC(=O)[C@H](CC(C)C)NC(=O)[C@H](CCCCN)NC(=O)[C@H](CCCCNC(=O)[C@H](Cc1ccccc1)NC(=O)[C@H](CCN)NC(=O)[C@H](CCCCNC(=O)[C@H](CC(C)C)NC(=O)[C@@H](N)CCCN)NC(=O)[C@H](CC(C)C)NC(=O)[C@@H](N)CCCN)NC(=O)[C@H](Cc1ccccc1)NC(=O)[C@H](CCN)NC(=O)[C@H](CCCCNC(=O)[C@H](CC(C)C)NC(=O)[C@@H](N)CCCN)NC(=O)[C@H](CC(C)C)NC(=O)[C@@H](N)CCCN)C(N)=O [TNS-123, (OrnL)4(KDabF)2(KKLK-CO(CH2)8CH3)] (I: H-[Orn]LK([Leu-Orn])[Dab]FKKLK(Decanoyl)-NH2 / II: H-[Orn]LK([Leu-Orn])[Dab]F; amide I:6-II:C; N-terminus assumed) | – | – | – | – | 2 µg/mL (≈ 0.859 µM) | 4 to 8 µg/mL | 8 to 16 µg/mL | 16 µg/mL (≈ 6.87 µM) | >64 µg/mL | 4 µg/mL (≈ 1.72 µM) | 8 µg/mL (≈ 3.43 µM) | 32 µg/mL (≈ 13.7 µM) | 32 to 64 µg/mL |
| CCCCCCCCCC(=O)NCCCC[C@H](NC(=O)[C@H](CC(C)C)NC(=O)[C@H](CCCCN)NC(=O)[C@H](CCCCNC(=O)[C@H](CC(C)C)NC(=O)[C@H](CCN)NC(=O)[C@H](CCCCNC(=O)[C@H](Cc1ccccc1)NC(=O)[C@@H](N)CCCN)NC(=O)[C@H](Cc1ccccc1)NC(=O)[C@@H](N)CCCN)NC(=O)[C@H](CC(C)C)NC(=O)[C@H](CCN)NC(=O)[C@H](CCCCNC(=O)[C@H](Cc1ccccc1)NC(=O)[C@@H](N)CCCN)NC(=O)[C@H](Cc1ccccc1)NC(=O)[C@@H](N)CCCN)C(N)=O [TNS-122, (OrnF)4(KDabL)2(KKLK-CO(CH2)8CH3] (I: H-[Orn]FK([Phe-Orn])[Dab]LKKLK(Decanoyl)-NH2 / II: H-[Orn]FK([Phe-Orn])[Dab]L; amide I:6-II:C; N-terminus assumed) | – | – | – | – | 2 µg/mL (≈ 0.834 µM) | 4 (8) μg/mL | 8 µg/mL | 4 µg/mL (≈ 1.67 µM) | 32 µg/mL (≈ 13.3 µM) | 4 µg/mL (≈ 1.67 µM) | 8 µg/mL (≈ 3.34 µM) | 8 to 16 µg/mL | 8 to 16 µg/mL |
